Source: PMC5271370, “A High-Content Assay Enables the Automated Screening and Identification of Small Molecules with Specific ALDH1A1-Inhibitory Activity” (PLoS ONE, 2017)
Read-outs that look alike come from different tables or passages of the source.

Experiments:
Human ALDH1A1 = molecular target: T1, Human ALDH1A1 (Homo sapiens, UniProt P00352); assay: 1,536-well enzymatic assay (NADH fluorescence), ALDH1A1; assay type: biochemical; conditions: validation set; 20 nM enzyme, NAD+ and propionaldehyde; read-out: Biochemical IC50 ALDH1A1
T1 construct: made in house
T1 sequence (P00352 1-501): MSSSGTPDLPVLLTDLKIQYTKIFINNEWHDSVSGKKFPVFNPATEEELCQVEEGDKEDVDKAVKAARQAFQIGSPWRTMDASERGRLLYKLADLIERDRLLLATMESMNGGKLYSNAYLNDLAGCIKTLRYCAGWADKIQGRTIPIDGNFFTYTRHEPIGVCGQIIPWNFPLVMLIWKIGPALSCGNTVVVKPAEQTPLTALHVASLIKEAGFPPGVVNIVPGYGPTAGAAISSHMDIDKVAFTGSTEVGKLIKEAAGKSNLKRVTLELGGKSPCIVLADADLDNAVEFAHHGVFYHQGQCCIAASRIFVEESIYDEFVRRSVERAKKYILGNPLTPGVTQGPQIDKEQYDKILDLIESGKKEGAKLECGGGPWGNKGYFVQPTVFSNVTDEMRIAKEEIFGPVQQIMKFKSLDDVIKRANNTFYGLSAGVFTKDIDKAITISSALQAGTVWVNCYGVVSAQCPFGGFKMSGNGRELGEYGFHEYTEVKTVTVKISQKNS
Text: To validate our optimized assay, we assembled a set of 20 previously reported ALDH inhibitors, with varying degrees of target specificity (Table 1 and S4 Fig). […] Briefly, the assay measures the dehydrogenase activity of recombinant human ALDH1A1, ALDH1A2, ALDH1A3, ALDH2 or ALDH3A1 using NAD(P)^+ and either propionaldehyde or benzaldehyde as substrates. An orthogonal resorufin-based assay format was also run with isolated ALDH1A1 to rule out potential false positives due to intrinsic compound fluorescence.
Human ALDH1A1 and ALDH3A1 were expressed and purified as described elsewhere. Human ALDH2 was purchased from Abcam (ab87415). Human ALDH1A2 and ALDH1A3 were purchased from MyBioSource (MBS1005929; San Diego, CA) and ThermoFisher (11636H07E50), respectively. The inhibitory activity of compounds against ALDHs was measured according to protocols described previously. Briefly, 3 μL of enzyme (final concentrations of 20 nM for ALDH1A1, 50 nM for ALDH1A2, 50 nM for ALDH1A3, 75 nM for ALDH2 and 5 nM for ALDH3A1) in assay buffer (100 mM HEPES pH 7.5 with 0.01% Tween 20) were dispensed into a 1,536-well solid-bottom black plate (Greiner Bio One, Monroe, NC). […] Samples were incubated (room temperature, protected from light) for 15 minutes followed by a 1 μL substrate addition of NAD^+ and Propionaldehyde (final concentrations of 1 mM and 80 μM, respectively) for ALDH1A1, 1A2, 1A3, and ALDH2 or NADP^+ and benzaldehyde (final concentrations of 1 mM and 200 μM, respectively) for ALDH3A1. Plates were centrifuged at 1,000 rpm for 15 seconds, then read in kinetic mode on a ViewLux High-throughput CCD imager (PerkinElmer, Waltham, MA) equipped with standard UV fluorescence optics (340 nm excitation, 450 nm emission) for 5 (ALDH1A1, ALDH1A2, ALDH2, ALDH3A1) or 30 (ALDH1A3) minutes. The change in fluorescence intensity over the 5- or 30-minute reaction period was normalized against no-inhibitor and no-enzyme controls and the resulting percent inhibition data were fitted to a 4-parameter Hill equation. Bay-11 7085 was used as intraplate control. To account for artifacts due to intrinsic compound fluorescence in the above spectrum, compounds were also tested in an orthogonal resorufin assay format with optics of excitation 525 nm/emission 598 nm as described before. The same parameters as the NADH assay were used for the resorufin assay, with the addition of (final) 133 μg/mL diaphorase and 37 μM resazurin to the assay solution. Same controls were used in both formats.

HT-29 cells = assay: 1,536-well high-content imaging ALDEFLUOR assay, HT-29; assay type: cell-based, human
Method: (§1) To miniaturize the assay into a 1536-well format amenable to qHTS, we chose MIA PaCa-2 and HT-29 because of their high levels of ALDH1A1(Fig 1A). Utilizing the 8-step protocol described by Ming et al. as a starting point, we developed a “semi-automated” protocol described in S1 Table. Briefly, we plated 1,000 cells in a volume of 5 μL/well into black-optical quality clear bottom 1,536-well plates, and allowed cells to attach overnight. Culture media was subsequently removed by inverting and centrifuging plates using a plate adaptor as previously described and replaced with 5 μL of a solution of either 500 or 100 nM BAAA substrate in ALDEFLUOR buffer. To identify cells based on nuclear staining, we also included 0.5 nM Hoechst 33342 in the above buffer. […] After incubating the plate for 30 minutes at 37°C, 5% CO2, 85% RH, the remaining substrate was removed by centrifugation as above and replaced with 3 μL of ALDEFLUOR buffer. Fluorescence was subsequently imaged using the IN Cell Analyzer 2200 high-content widefield fluorescence based imager and the resulting images were quantified using the IN Cell Investigator v1.6.2 analysis software (see Experimental Procedures for analysis details).
(§2) The ALDEFLUOR kit was purchased from […] Technologies (Vancouver, Canada; #01700). Cells (5 μL) were dispensed into black, optical quality (cyclic olefin copolymer) clear bottom, medium binding TC treated 1,536-well plates (Aurora Microplates, Whitefish MT) using a Multidrop Combi dispenser (ThermoFisher) and incubated overnight (37°C, 5% CO2, 85% RH). Media was subsequently removed by centrifuging plates upside down using a plate adaptor to collect media. A solution of BAAA substrate ([…] Technologies) and Hoechst 33342 (ThermoFisher, final concentrations of 500 nM and 0.5 nM, respectively) in ALDEFLUOR buffer ([…] Technologies #01700) was dispensed onto cells using a Multidrop Combi followed by immediate transfer (23 nL) of compound or control solutions using a Wako Pin-tool (final percentage of DMSO in the cell plates was 0.5%). Unless otherwise noted, all compounds were assayed as 16-point dilutions spanning a final concentration range of 1.4 nM to […]. […] Cells were incubated for 30 minutes or the indicated amount of time at 37°C, 5% CO2, 85% RH to allow the conversion of BAAA into BAA. Supernatant was subsequently removed by centrifugation as described above, then ALDEFLUOR buffer (3 μl) was dispensed by Multidrop Combi before imaging on an IN Cell 2200 (GE Healthcare).
(§3) The above assay was modified for an online robotic screening system. After cell plating and overnight incubation, 4 μL of media were removed using a 64-tip metal aspirator head on a Wako aspirator station, leaving 1 μL remaining in the well, followed by a 4 μL dispense of BAAA and Hoechst 33342 in ALDEFLUOR buffer, for a final concentration of 500 nM and 0.5 nM, respectively. Immediately following the dispense, 23 nL of compound or control solutions were transferred using a Wako Pin-tool. Cells were incubated for 30 minutes at 37°C, 5% CO2, 85% RH, followed by a 4 μL media removal using the Wako aspirator, and a subsequent 3 μL addition of ALDEFLUOR buffer. Plates were then immediately read on the IN Cell 2200 as described below.
(§4) For images captured on the IN Cell 2200 widefield automated microscope, a 10x 0.45 NA Plan Apo objective lens was used to capture the entire well of the 1,536-well plate using standard DAPI (390/18x, 432/48m) and FITC (475/28x, 525/48m) filter sets at 50 msec and 100 msec exposures, respectively. Images were subsequently analyzed using IN Cell Investigator v1.6.2 analysis software’s canned Multi-Target Analysis algorithm (GE Healthcare). Hoechst stained nuclei were identified using top hat segmentation with a minimum area of 75 μm^2 and sensitivity of 93. […]

MIA PaCa-2 cells = assay: 1,536-well high-content imaging ALDEFLUOR assay, MIA PaCa-2; assay type: cell-based, human; conditions: semi-automated; active = high quality concentration response curve and >50% efficacy; up to 45.8 μM
Method: as §1, §2, §3, §4

LN-229 cells = assay: 1,536-well high-content imaging ALDEFLUOR assay, LN-229; assay type: cell-based, human; conditions: fully automated assay, Fig 5
Method: We next sought to test if the fully automated high-content assay could be used to detect ALDH1A1-specific inhibitors.
as §2
as §3, with “Cells were incubated for 30 minutes at 37°C, 5% CO2, 85% RH, followed by a 4 μL media removal using the Wako aspirator, and a subsequent 3 μL addition of ALDEFLUOR buffer.” left out
as §4, with “Healthcare).” for “Healthcare). Hoechst stained nuclei were identified using top hat segmentation with a minimum area of 75 μm^2 and sensitivity of 93.”
The same controls were also used for the calculation of the Z’ factor for each assay. The Z’ factor, a measure of assay quality control, was determined as previously described. […] All concentration–response curves were fitted as before and IC50 were calculated with the GraphPad Prism software.

ALDH1A1 = conditions: reported ALDH target 1A1; read-out: Reported Biochemical IC50, ALDH1A1; cited from earlier work

SMILES | IC50 (Human ALDH1A1) | Activity in ALDEFLUOR assay, HT-29 (HT-29 cells; semi-automated, active = high quality concentration response curve and >50% efficacy, up to 45.8 μM) | Activity in ALDEFLUOR assay, MIA PaCa-2 (MIA PaCa-2 cells) | IC50 (HT-29 cells; fully automated assay, n = 4, read-out: ALDEFLUOR IC50 HT-29 (Fig 5)) | IC50 (HT-29 cells; validation set, semi-automated protocol, 16-point dilution, 1,000 cells/well, 500 nM BAAA, 30 min, read-out: Aldefluor IC50 HT-29) | Inhibition of BAAA turnover in LN-229 (ALDH1A1-negative cells) (LN-229 cells) | IC50 (ALDH1A1)
CCSC(=O)N1CCCCCC1 [Molinate] | 27 µM | tested negative | tested negative | – | – | – | –
CC(C)CCn1c(CN2CCN(C(=O)C3CC3)CC2)nc2c1c(=O)n(C)c(=O)n2C [NCT-501] | – | – | – | 3.3 µM | 4.33 µM | inhibited BAAA turnover only in ALDH1A1-expressing cells | […]
